Results taken from ChEMBL document CHEMBL1201862, “PubChem BioAssay data set” (2004).
The source made the active and inactive calls.

Experiments:
[1] = tested on: Streptococcus sp. 'group A'; experiment: growth inhibition of control SK(-) GAS strain, dose response, counter-screen for streptokinase expression inhibitor project, luminescence, kanamycin, BacTiterGlo, confirmation (AID 1900); type: functional, organism-based
Streptokinase A = target: T1, Streptokinase A (Streptococcus pyogenes serotype M1, UniProt P10520); experiment: S. pyogenes streptokinase expression inhibitors, potency, dose response, plasminogen activation absorbance, OD405 (AID 1914); type: functional, Streptococcus pyogenes M1 GAS;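 further: secreted streptokinase activity via plasminogen activation per viability signal from cell pellet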
T1 sequence (P10520 whole entry): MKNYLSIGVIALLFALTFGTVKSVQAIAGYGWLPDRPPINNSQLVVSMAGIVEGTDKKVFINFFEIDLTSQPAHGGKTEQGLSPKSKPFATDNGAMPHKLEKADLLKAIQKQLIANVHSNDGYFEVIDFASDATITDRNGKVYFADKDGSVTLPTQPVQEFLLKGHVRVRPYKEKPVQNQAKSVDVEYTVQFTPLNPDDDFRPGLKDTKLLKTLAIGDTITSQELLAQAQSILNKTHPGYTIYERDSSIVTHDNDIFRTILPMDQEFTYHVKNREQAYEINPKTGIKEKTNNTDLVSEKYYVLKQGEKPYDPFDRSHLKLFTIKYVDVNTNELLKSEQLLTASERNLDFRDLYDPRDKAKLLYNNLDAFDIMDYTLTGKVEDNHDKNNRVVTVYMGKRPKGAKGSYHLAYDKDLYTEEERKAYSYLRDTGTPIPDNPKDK

[2] = Luminescence-based counterscreen assay for KLF5 inhibitors: dose response cell-based high throughput screening assay to identify cytotoxic compounds using the IEC-6 intestinal epithelial cell line. [Related pubchem assays: 1700 (Primary screen.), 1834 (Confirmation screen.), 1858 (Summary AID.), 1905 (Counterscreen.)]; type: functional
Streptococcus = experiment: Group A Streptococcus viability loss, dose response, counter-screen for streptokinase expression inhibitor project, luminescence, BacTiterGlo (AID 1915); type: functional, organism-based;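 further: potency for reduction of bacterial viability or growth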
[3] = A549 cell cytotoxicity, dose response, cytotoxicity control, plate reader, cherry-pick, antagonist series (AID 743412); type: functional, cell-based
[4] = HepG2 cell cytotoxicity, dose response, cytotoxicity control, plate reader, cherry-pick, antagonist series (AID 743416); type: functional, cell-based
[5] = LGR2 antagonists, dose response, cell-based, HEK293, CRE-luciferase reporter, cherry pick, set 2 (AID 743343); type: functional;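 further: transfected cells were stimulated with diluted bursicon conditioned medium after compound addition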
[6] = MC4R antagonists, dose response, counter-screen for LGR2 antagonist project, cell-based, plate reader, cherry pick (AID 743444); type: functional;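 further: transfected HEK 293 cells stimulated with alpha-MSH peptide; potency of inhibitors of the alpha-MSH evoked signal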
[7] = HEK293 cell cytotoxicity, dose response, cytotoxicity control, plate reader, cherry-picked samples (AID 743446); type: functional, cell-based
[8] = target: Neuropeptide Y receptor type 1 (Homo sapiens, UniProt P25929); type: functional;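 further: HEK293 cells with a CNG channel challenged with NPY then isoproterenol; potency as antagonist that reverses NPY suppression of cAMP signal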
[9] = target: Neuropeptide Y receptor type 2 (Homo sapiens, UniProt P49146); type: functional, cell-based;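 further: HEK293 cells expressing the receptor and a CNG channel; stimulus was NPY near EC95 followed by isoproterenol to raise cAMP; antagonist potency measured as restoring cAMP signal that NPY suppresses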
[10] = inhibitors of firefly luciferase expression or activity, dose response, H4 neuroglioma cells, luminescence (AID 1990); type: functional, cell-based
[11] = insulin promoter down-regulators in MIN6 cells, imaging, high-content screening, mouse beta cells (AID 1628); type: functional
[12] = Luminescence Cell-Based Dose Response HTS to Identify Inhibitors of 5'UTR Stem-Loop Driven Prion Protein mRNA Translation in H4 Neuroglioblastoma Cells. [Related pubchem assays: 1827 (Project Summary), 1813 (Primary HTS)]; type: functional
[13] = cytotoxicity in MIN6 insulinoma cells, dose response, cytotoxicity control, cell-based, mouse insulinoma (AID 2122); type: functional;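 further: confirmatory high-throughput counterscreen run to flag cytotoxic compounds; mouse MIN-6 beta cells carrying an insulin promoter eGFP reporter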
Vero = experiment: host cell cytotoxicity of antiviral hits, dose response, cytotoxicity control for West Nile virus antiviral project, secondary assay (AID 1650); type: functional; details: Chlorocebus sabaeus
[14] = inhibitors of SNCA 5'UTR-driven reporter translation, confirmation, H4 neuroglioma cells, luminescence (AID 1988); type: functional, cell-based
[15] = target: Induced myeloid leukemia cell differentiation protein Mcl-1 (Homo sapiens, UniProt Q07820); type: functional
Exodeoxyribonuclease V = target: T2, Exodeoxyribonuclease V (Escherichia coli (strain K12), UniProt P04993+P07648+P08394); experiment: E. coli RecBCD inhibitors, dose response, counter-screen for AddAB inhibitor project, absorbance, V66 E. coli, mutant T4 phage (AID 492957); type: functional, cell-based, Escherichia coli str. K-12 substr. MG1655
T2 sequence (P04993 whole entry): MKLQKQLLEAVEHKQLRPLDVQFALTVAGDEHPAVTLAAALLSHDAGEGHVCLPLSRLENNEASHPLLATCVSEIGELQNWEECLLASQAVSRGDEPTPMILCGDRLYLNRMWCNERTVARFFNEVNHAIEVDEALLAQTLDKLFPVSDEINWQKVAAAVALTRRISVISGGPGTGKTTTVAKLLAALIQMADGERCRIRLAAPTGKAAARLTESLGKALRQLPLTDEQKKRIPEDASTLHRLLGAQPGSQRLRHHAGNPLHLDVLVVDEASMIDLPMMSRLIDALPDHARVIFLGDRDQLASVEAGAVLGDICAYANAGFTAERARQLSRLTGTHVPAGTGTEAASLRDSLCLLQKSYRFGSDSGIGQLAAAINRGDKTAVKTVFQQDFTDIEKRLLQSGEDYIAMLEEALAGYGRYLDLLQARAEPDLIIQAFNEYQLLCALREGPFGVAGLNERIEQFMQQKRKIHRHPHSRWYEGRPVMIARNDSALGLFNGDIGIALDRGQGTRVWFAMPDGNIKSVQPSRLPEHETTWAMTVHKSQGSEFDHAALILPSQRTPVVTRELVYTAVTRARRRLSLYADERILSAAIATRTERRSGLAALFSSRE
T2 sequence (P07648 whole entry): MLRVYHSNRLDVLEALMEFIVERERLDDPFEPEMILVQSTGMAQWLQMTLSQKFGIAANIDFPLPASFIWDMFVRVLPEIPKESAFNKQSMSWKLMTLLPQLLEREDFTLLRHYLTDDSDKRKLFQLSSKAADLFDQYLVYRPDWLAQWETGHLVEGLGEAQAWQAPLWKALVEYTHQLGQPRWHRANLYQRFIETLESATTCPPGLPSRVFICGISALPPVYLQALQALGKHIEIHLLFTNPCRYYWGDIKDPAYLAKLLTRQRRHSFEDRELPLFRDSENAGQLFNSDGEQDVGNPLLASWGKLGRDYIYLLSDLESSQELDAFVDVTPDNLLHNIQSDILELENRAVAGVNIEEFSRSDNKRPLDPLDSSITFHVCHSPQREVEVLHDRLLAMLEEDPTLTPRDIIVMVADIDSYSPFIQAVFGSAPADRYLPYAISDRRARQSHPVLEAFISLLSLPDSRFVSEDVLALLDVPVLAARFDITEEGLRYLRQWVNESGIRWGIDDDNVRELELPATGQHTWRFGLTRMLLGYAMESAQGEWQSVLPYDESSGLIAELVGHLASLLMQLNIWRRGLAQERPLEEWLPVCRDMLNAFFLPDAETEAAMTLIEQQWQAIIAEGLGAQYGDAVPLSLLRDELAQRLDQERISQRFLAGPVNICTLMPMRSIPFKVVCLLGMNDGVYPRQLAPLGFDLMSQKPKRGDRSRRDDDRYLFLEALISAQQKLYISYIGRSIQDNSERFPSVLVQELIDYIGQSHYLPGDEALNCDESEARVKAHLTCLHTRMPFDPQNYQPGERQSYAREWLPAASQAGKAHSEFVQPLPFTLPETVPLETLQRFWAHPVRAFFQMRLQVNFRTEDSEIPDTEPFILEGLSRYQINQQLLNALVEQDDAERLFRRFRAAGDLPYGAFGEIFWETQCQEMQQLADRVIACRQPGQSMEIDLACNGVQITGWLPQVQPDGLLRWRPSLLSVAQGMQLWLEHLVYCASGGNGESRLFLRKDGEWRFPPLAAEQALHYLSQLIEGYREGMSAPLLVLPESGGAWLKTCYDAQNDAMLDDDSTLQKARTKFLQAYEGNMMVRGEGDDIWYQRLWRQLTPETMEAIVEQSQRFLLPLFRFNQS
T2 sequence (P08394 whole entry): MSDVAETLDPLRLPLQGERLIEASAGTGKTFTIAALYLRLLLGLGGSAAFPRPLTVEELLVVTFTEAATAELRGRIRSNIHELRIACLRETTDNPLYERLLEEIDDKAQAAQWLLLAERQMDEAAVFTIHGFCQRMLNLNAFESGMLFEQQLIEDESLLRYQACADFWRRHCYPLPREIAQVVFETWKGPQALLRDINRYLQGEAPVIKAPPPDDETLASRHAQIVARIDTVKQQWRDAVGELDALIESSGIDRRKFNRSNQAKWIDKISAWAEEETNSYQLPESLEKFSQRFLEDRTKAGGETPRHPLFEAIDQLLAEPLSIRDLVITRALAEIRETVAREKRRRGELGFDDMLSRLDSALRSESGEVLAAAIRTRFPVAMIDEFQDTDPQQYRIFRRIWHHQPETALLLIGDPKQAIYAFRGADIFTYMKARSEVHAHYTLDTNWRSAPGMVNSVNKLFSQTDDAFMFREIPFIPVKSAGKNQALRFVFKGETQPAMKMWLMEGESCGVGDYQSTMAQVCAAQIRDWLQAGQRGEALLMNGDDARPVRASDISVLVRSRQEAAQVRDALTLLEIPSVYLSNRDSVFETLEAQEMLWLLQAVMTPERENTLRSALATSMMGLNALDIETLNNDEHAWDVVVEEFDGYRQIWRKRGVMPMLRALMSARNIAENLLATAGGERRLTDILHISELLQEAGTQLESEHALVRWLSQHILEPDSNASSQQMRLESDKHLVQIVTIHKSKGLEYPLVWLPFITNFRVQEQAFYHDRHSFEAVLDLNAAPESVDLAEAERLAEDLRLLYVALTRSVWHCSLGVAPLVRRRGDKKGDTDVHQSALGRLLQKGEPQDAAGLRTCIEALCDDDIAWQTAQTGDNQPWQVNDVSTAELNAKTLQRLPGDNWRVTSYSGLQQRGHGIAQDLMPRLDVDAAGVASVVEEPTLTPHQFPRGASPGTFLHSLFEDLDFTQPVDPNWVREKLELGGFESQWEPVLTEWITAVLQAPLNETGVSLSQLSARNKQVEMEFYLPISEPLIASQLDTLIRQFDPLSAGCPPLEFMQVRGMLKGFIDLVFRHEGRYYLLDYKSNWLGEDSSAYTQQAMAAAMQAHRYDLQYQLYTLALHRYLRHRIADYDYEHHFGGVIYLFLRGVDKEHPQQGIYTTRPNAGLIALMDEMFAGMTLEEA

[16] = Counterscreen for AddAB inhibitors: absorbance-based bacterial cell-based high throughput dose response assay for inhibitors of bacterial viability. [Related pubchem assays (depositor defined):AID435030, AID449728, AID449731, AID488942, AID488955, AID488956]; type: functional
INS1 = experiment: beta cell apoptosis inhibitors, cytokine rescue, dose response, luminescence, retest (AID 449756); type: functional, cell-based; details: Rattus norvegicus;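 further: cell death triggered by IL-1 beta plus TNF-alpha plus IFN-gamma mixture; protective hits raise ATP signal compared with cytokine alone wells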
[17] = Luminescence Cell-Based Dose Response to Identify Activators of 5'UTR Stem-Loop Driven Prion Protein mRNA Translation in H4-C Neuroglioblastoma Cells. [Related pubchem assays: 1829 (Project Summary), 1814 (Primary HTS)]; type: functional
H4 = experiment: Luminescence Cell-Based Dose Response HTS to Identify Activators of 5'UTR Stem-Loop Driven Prion Protein mRNA Translation in H4 Neuroglioblastoma Cells. [Related pubchem assays: 1829 (Project Summary), 1814 (Primary HTS)]; type: functional; details: Homo sapiens
[18] = Luminescence Cell-Based Dose Response to Identify Activators of Luciferase Translation or Activity in H4-C Neuroglioblastoma Cells. [Related pubchem assays: 1829 (Project Summary), 1814 (Primary HTS)]; type: functional
[19] = target: Epstein-Barr nuclear antigen 1 (Epstein-Barr virus (strain B95-8) (HHV-4) (Human herpesvirus 4), UniProt P03211); experiment: EBNA-1 inhibitors, dose response, biochemical, fluorescence polarization, 1536-well (AID 2381); design: species or system human gammaherpesvirus 4;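 further: fluorescence polarization of a Cy5 DNA probe bound by EBNA-1 protein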
[20] = target: Lytic switch protein BZLF1 (Epstein-Barr virus (strain B95-8) (HHV-4) (Human herpesvirus 4), UniProt P03206); experiment: EBV ZTA inhibitors, dose response, counter-screen for EBNA-1 inhibitor project, biochemical, fluorescence polarization, Epstein-Barr virus, 1536-well (AID 2377); design: species or system human gammaherpesvirus 4;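 further: fluorescence polarization of Cy5-labelled ZRE DNA probe bound by purified Zta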
[21] = Luminescence Cell-Based Dose Confirmation to Identify Activators of 5'UTR Stem-Loop Driven Alpha-Synuclein mRNA Translation in H4 Neuroglioblastoma Cells. [Related pubchem assays: 1829 (Project Summary), 1814 (Primary HTS)]; type: functional
[22] = NIH-3T3 fibroblast cytotoxicity, dose response, cytotoxicity control, cell-based, fluorescence, Alamar Blue, secondary assay (AID 2327); type: functional;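 further: NIH-3T3 mouse fibroblasts cultured with fluconazole at 8 µg/mL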
[23] = C. albicans growth with fluconazole, confirmation, fluorescence, retest (AID 2467); type: functional, cell-based
Estrogen receptor beta = Estrogen receptor beta (Homo sapiens, UniProt Q92731); experiment: ERβ–SRC-3 coactivator interaction inhibitors, confirmation, orthogonal assay, biochemical, ELISA, streptavidin-HRP readout (AID 1060)
Estrogen receptor beta, sequence (Q92731 whole entry): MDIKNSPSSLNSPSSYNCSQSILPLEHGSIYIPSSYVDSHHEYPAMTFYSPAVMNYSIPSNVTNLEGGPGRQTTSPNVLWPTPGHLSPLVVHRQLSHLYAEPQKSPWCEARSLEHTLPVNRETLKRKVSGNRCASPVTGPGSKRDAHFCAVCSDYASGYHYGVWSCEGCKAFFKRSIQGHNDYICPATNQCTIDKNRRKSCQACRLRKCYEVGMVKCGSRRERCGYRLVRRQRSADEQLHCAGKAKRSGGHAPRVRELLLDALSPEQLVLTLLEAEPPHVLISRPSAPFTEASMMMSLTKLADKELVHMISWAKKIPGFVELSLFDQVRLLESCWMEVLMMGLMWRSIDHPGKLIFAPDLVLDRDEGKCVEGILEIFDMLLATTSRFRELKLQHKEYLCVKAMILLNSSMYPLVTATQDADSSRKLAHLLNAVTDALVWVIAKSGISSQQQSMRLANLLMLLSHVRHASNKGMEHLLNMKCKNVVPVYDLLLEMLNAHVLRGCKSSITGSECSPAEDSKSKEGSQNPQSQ

Neuropeptide Y receptor type 2, sequence (P49146 whole entry): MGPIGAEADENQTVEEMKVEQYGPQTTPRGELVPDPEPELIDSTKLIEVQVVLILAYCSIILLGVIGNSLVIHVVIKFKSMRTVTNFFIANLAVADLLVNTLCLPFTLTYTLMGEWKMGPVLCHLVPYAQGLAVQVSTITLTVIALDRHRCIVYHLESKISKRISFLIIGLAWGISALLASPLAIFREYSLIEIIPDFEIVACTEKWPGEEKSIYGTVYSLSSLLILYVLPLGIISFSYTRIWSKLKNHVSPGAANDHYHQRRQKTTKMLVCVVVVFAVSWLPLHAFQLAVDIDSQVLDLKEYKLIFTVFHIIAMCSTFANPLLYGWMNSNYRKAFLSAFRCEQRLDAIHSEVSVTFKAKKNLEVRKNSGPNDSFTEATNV
Neuropeptide Y receptor type 1, sequence (P25929 whole entry): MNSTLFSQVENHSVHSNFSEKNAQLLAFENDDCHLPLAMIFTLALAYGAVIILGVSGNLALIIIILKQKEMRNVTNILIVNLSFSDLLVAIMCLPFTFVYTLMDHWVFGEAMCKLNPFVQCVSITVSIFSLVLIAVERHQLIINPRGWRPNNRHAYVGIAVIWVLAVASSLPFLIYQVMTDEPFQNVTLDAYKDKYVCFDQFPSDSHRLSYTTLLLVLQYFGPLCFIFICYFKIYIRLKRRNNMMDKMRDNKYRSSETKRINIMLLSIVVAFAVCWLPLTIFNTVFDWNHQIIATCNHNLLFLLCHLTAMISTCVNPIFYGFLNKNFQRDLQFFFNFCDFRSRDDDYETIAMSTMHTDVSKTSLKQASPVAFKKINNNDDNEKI
Induced myeloid leukemia cell differentiation protein Mcl-1, sequence (Q07820 whole entry): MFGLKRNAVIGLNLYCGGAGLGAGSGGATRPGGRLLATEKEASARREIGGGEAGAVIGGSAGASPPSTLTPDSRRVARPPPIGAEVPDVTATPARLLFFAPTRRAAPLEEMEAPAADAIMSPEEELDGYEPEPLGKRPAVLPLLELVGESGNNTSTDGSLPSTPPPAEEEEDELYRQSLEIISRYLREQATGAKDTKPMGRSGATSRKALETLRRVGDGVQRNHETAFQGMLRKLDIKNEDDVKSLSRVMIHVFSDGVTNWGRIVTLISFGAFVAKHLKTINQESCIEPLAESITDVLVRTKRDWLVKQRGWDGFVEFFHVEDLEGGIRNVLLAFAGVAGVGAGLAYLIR
Lytic switch protein BZLF1, sequence (P03206 whole entry): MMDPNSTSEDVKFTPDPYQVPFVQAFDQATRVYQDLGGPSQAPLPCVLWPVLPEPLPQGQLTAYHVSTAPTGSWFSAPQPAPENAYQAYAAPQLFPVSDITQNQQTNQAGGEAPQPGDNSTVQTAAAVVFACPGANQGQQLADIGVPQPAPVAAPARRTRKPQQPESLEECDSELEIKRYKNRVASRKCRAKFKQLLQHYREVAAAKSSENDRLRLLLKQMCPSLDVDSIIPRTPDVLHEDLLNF
Epstein-Barr nuclear antigen 1, sequence (P03211 whole entry): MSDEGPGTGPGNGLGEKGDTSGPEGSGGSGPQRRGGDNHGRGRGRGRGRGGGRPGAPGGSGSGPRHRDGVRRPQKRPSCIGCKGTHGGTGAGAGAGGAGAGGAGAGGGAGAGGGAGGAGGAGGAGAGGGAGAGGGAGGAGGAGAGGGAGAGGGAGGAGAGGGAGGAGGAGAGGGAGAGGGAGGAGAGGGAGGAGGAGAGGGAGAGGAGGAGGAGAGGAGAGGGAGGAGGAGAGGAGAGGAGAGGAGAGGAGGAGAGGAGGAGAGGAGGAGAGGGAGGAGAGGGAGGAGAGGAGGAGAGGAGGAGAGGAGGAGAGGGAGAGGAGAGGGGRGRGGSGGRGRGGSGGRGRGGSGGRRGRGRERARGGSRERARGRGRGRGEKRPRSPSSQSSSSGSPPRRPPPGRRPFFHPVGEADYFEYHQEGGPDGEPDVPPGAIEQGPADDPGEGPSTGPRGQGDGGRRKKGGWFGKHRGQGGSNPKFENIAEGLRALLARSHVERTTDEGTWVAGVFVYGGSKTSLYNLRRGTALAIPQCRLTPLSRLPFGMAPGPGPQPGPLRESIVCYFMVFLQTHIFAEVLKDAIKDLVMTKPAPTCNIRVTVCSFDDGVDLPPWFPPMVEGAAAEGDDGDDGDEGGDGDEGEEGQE

## O=C(Nc1nc2cc3c(cc2s1)OCCO3)c1ccco1
[1]
  EC50: 19.5 µM (active)
Streptokinase A
  EC50: > 150 µM (not active)
[2]
  IC50: 7.91 µM (active)
Streptococcus
  EC50: 53.5 µM (active)
[3]
  AC50: 12.9 µM (active)
[4]
  AC50: 28.5 µM (active)
[5]
  AC50: 1.12 µM (active)
[6]
  AC50: 1.07 µM (active)
[7]
  AC50: 45.4 µM (active)

## COc1ccc(-c2noc(COc3ccc(Cl)c(C)c3)n2)cc1
[8]
  IC50: 5.14 µM (active)
[9]
  IC50: 4.25 µM (active)

## Cc1ccc(C(C)C)c(OCc2ccc(C(=O)N/N=C/c3ccc(O)cc3O)cc2)c1
[10]
  EC50: 3 µM (active)
[11]
  IC50: 1.03 µM (active)
[1]
  EC50: 1.3 µM (active)
[12]
  EC50: 8.36 µM (active)
[13]
  IC50: 1.04 µM (active)
Vero
  CC50: 6.86 µM (active)
[14]
  EC50: 2.17 µM (active)
[15]
  IC50: 4.97 µM (active)
Streptococcus
  EC50: 2.15 µM (active)
Exodeoxyribonuclease V
  IC50: > 119 µM (inactive)
[16]
  IC50: > 119 µM (inactive)
INS1
  AC50: 1.24 µM (active)

## Cc1cc(C(=O)CSc2nnnn2-c2ccccc2)c(C)n1CC1CCCO1 (configuration not stated)
[17]
  EC50: 0.326 µM (active)
H4
  EC50: < 0.1 µM (active)
[18]
  EC50: 0.353 µM (active)
[19]
  IC50: 5.23 µM (active)
[20]
  IC50: > 111 µM (not active)
[21]
  EC50: 0.338 µM (active)

## CN1CCN(C(c2cccnc2)c2ccc3cccnc3c2O)CC1 (configuration not stated)
[22]
  EC50: > 160 µM (inactive)
[23]
  EC50: > 38 µM (not active)
Estrogen receptor beta
  IC50: 32.6 µM (not active)
